Holding throughout (assay): growth of human tumour cells (NCI), 48 h
Experiment [1] has as its system HOP-62.
Experiment [2] concerns RXF 393.
Experiment [3] has as its system OVCAR-5.
Experiment [4] deals with SNB-75.
The test system of experiment [5] is HT-29.
Experiment [6] concerns HL-60.
The subject of experiment [7] is SW-620.
Experiment [8] deals with M14.
The subject of experiment [9] is LOX IMVI.
Experiment [10] concerns COLO 205.
Experiment [11] concerns A498.
The test system of experiment [12] is SK-OV-3.
For experiment [13], the system named is SK-MEL-2.
The test system of experiment [14] is SK-MEL-5.
The test system of experiment [15] is DLD-1.
Experiment [16] deals with NCI-H522.
The subject of experiment [17] is HOP-92.
Experiment [18] relates to NCI-H460.
For experiment [19], the system named is HCT-116.
For experiment [20], the system named is U-251.

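Protocol summary: plate cells (96-well), add compound at 5 concentrations, incubate 48 h, interpolate endpoints linearly. Abbreviation: GI50, concentration required for 50% inhibition of growth.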 Calls of active or inactive are those of the source. Rule as the data show it: active = GI50 up to about 1.1 µM and inactive = higher.

As for `C/C(=N/NC(N)=S)c1ccc2ccccc2c1`, the GI50 in [1] is 46.6 µM (inactive); in experiment [2], 35.3 µM (inactive); in experiment [3], 24 µM (inactive); in experiment [4], 25.9 µM (inactive); in experiment [5], 19.7 µM (inactive); in experiment [6] it was 15 µM (inactive). Further, the GI50 was 33.3 µM (inactive) in experiment [7]; 11.8 µM (inactive) in experiment [8]; 39.8 µM (inactive) in [9]; 21.4 µM (inactive) in experiment [10]; 42.4 µM (inactive) in [11]; 21.9 µM (inactive) in experiment [12]. Also, the GI50 was 15.8 µM (inactive) in experiment [13]; 14.2 µM (inactive) in experiment [14]; 21.2 µM (inactive) in experiment [15]; 17.6 µM (inactive) in [16]; > 100 µM (inactive) in experiment [17]; 24.2 µM (inactive) in experiment [18]. The GI50 in [19] is 23.8 µM (inactive); in experiment [20], 24.8 µM (inactive).

Take `C=CCCCCCCCCC(=O)O` [UNDECYLENIC ACID]: the GI50 in experiment [1] is 105 µM (inactive); in [2], 93.1 µM (inactive); in [3] it was 145 µM (inactive); in [4], 168 µM (inactive); in [5], 118 µM (inactive); in [6], 101 µM (inactive). Further, the GI50 in experiment [7] was 125 µM (inactive); in experiment [9] it was 102 µM (inactive); in [10], 41.3 µM (inactive); in experiment [11], 0.798 µM (active); in experiment [12], 138 µM (inactive); in experiment [13], 85.3 µM (inactive). Besides, the GI50 in experiment [14] was 93.8 µM (inactive); in [15], 76.2 µM (inactive); in experiment [16], 105 µM (inactive); in experiment [17] it was 83.2 µM (inactive); in experiment [18], 94.2 µM (inactive); in experiment [19], 110 µM (inactive). For the same compound, the GI50 in experiment [20] is 112 µM (inactive).

As for `CCOc1ccc(NC(=O)C(=O)CC(=O)c2sc(NNC(C)=O)nc2C)cc1`, the GI50 in [1], in experiment [2], in [3], in [4], in experiment [5] and in experiment [6] was > 100 µM (inactive) each time. Further, the GI50 in experiment [7], in experiment [8], in [9], in experiment [10], in experiment [11] and in [12] was > 100 µM (inactive) each time. The GI50 in [13], in experiment [14], in [15], in [16], in experiment [17] and in experiment [18] was > 100 µM (inactive) in each case. Also, the GI50 in experiment [19] and in [20] was > 100 µM (inactive) throughout.

With `COC1OC2=CCC3C(=O)NC(=O)C3C2[C@H](OCc2ccccc2)C1OCc1ccccc1` (stereo not given in full), the GI50 in experiment [1] was 17.9 µM (inactive); in experiment [2] it was 1.61 µM (inactive); in [3], 15.7 µM (inactive); in [4], 17.3 µM (inactive); in [5], 1.82 µM (inactive); in experiment [6], 1.79 µM (inactive). Besides, the GI50 in experiment [7] is 1.49 µM (inactive); in [8], 1.81 µM (inactive); in [9], 1.73 µM (inactive); in experiment [12], 17.1 µM (inactive); in experiment [13], 5.36 µM (inactive); in experiment [14], 19 µM (inactive). Besides, the GI50 was 1.97 µM (inactive) in experiment [15]; 1.67 µM (inactive) in experiment [16]; 1.63 µM (inactive) in experiment [17]; 17.9 µM (inactive) in [18]; 1.55 µM (inactive) in experiment [19]; 18.7 µM (inactive) in experiment [20].

Consider `COc1ccc(CN2C(=O)C(=O)N(C)C2=O)c2ccccc12`, for which the GI50 in experiment [1], in experiment [2], in [3], in [4], in experiment [5] and in experiment [6] was > 10 µM (inactive) each time. Also, the GI50 in [7], in experiment [8], in experiment [9], in experiment [10], in [11] and in [12] was > 10 µM (inactive) throughout. Also, the GI50 was > 10 µM (inactive) in experiment [13]; > 10 µM (inactive) in experiment [14]; 9.68 µM (inactive) in [16]; > 10 µM (inactive) in experiment [18]; > 10 µM (inactive) in experiment [19]; > 10 µM (inactive) in experiment [20].

Consider `COc1ccc(-c2cc3[nH]nc(N)c3c(=O)o2)cc1`, for which the GI50 in experiment [2] is 55.3 µM (inactive); in [3], > 100 µM (inactive); in experiment [4], 97.3 µM (inactive); in [5] it was > 100 µM (inactive); in experiment [6], 90.4 µM (inactive); in [7], > 100 µM (inactive). The GI50 was > 100 µM (inactive) in experiment [8]; > 100 µM (inactive) in experiment [9]; > 100 µM (inactive) in experiment [10]; 76.9 µM (inactive) in [11]; > 100 µM (inactive) in experiment [13]; > 100 µM (inactive) in experiment [14]. Further, the GI50 was > 100 µM (inactive) in experiment [15]; > 100 µM (inactive) in [17]; > 100 µM (inactive) in experiment [18]; > 100 µM (inactive) in [19]; 89.9 µM (inactive) in experiment [20].

For the compound `CC(=O)OCc1nnn2c1CCC2`, the GI50 in experiment [1], in [2], in [3], in experiment [4], in experiment [5] and in [6] was > 100 µM (inactive) in each case. Further, the GI50 in experiment [7], in [8], in [9], in experiment [12], in experiment [13] and in experiment [14] was > 100 µM (inactive) throughout. Also, the GI50 in [15], in [16], in [17], in experiment [18], in [19] and in experiment [20] was > 100 µM (inactive) in each case.

`CN(Cc1cnc2nc(N)nc(N)c2n1)c1ccc(C(=O)NC(CCC(=O)O)C(=O)O)cc1C(F)(F)F` (stereo not given): the GI50 in [2] was > 100 µM (inactive); in [3], < 0.01 µM (active); in experiment [4], > 100 µM (inactive); in [5] it was < 0.01 µM (active); in experiment [6], < 0.01 µM (active); in [7] it was < 0.01 µM (active). Also, the GI50 in [9] was < 0.01 µM (active); in experiment [10], < 0.01 µM (active); in experiment [11], < 0.01 µM (active); in experiment [12] it was > 100 µM (inactive); in experiment [13], > 100 µM (inactive); in [14], < 0.01 µM (active). Moreover, the GI50 in [16] was < 0.01 µM (active); in experiment [17] it was > 100 µM (inactive); in experiment [18] it was < 0.01 µM (active); in experiment [20], < 0.01 µM (active).

For the compound `COc1ccc2c(c1)C(=O)/C(=C/c1ccccc1)C2`, the GI50 is 29.6 µM (inactive) in experiment [1]; 43.9 µM (inactive) in experiment [2]; 52.5 µM (inactive) in [3]; 46.5 µM (inactive) in experiment [4]; 31.6 µM (inactive) in experiment [5]; > 10 µM (inactive) in [6]. Also, the GI50 is 27 µM (inactive) in [8]; 44 µM (inactive) in [11]; > 100 µM (inactive) in experiment [12]; 74.1 µM (inactive) in experiment [13]; 29.4 µM (inactive) in experiment [14]; 45.2 µM (inactive) in [16]. The figures for the GI50 in [17], in experiment [18] and in experiment [20] were 59.7 µM (inactive), 34 µM (inactive) and > 100 µM (inactive), respectively.

Regarding `O=C1C=C(C2OC(CO)C(O)C2O)C(=O)N1` (stereo not given), the GI50 was > 100 µM (inactive) in experiment [1]; > 100 µM (inactive) in [2]; > 100 µM (inactive) in experiment [3]; > 100 µM (inactive) in experiment [4]; > 100 µM (inactive) in experiment [5]; 45.9 µM (inactive) in experiment [6]. The GI50 in experiment [7] was 26 µM (inactive); in experiment [9] it was > 100 µM (inactive); in experiment [10], 76.9 µM (inactive); in experiment [11], > 100 µM (inactive); in experiment [12] it was > 100 µM (inactive); in experiment [13], > 100 µM (inactive). Moreover, the GI50 in experiment [14] is > 100 µM (inactive); in experiment [15], > 85.3 µM (inactive); in experiment [16] it was 19.8 µM (inactive); in [17], > 100 µM (inactive); in [18], > 100 µM (inactive); in experiment [19], > 100 µM (inactive). Moreover, the GI50 in experiment [20] was > 100 µM (inactive).
